According to patent US20250228821A1 (priority 2022, published 2025):

Experiments:
[1] = system: rats treated with dextroamphetamine; test: Ultrasonic vocalizations in rats induced by dextroamphetamine; type: in vivo, male Wistar rats; details: rats, 10, 30, 100 mg/kg IP 60 minutes before D-amphetamine 2.5 mg/kg IP (FIG. 9)
Protocol: 98 male Wistar rats were acclimated to the testing facility and handled daily (10 min/day) for 7 days prior to initiating the experiment. […] Rats were placed in white Plexiglas boxes (50×50×50 cm) and videotaped for 10 minutes to acclimate them to the test apparatus. Ultrasonic vocalizations (USV) were recorded with a microphone mounted 45 cm above the open field box to establish baseline, non-treatment related USV responses (50-kHz calls) in each rat. The next day, rats were injected with saline (1 mL/kg body weight, IP) and immediately placed into open field-testing boxes. USVs were recorded for 10 min.

[2] = single dose 32 mg ruboxistaurin, healthy subjects (FIG. 5); cited from earlier work
[3] = Blood/brain barrier penetration, pharmacokinetic study in rats; details: rat, 1 mg/kg intravenously
From the text: Blood samples were collected from 3 animals at 0.25, 1-, and 4-hours post-dose. Brain samples were collected from 9 other rats, 3 each at 0.25, 1-, and 4-hours post-dose. Brain samples were weighted and homogenized with phosphate buffered saline.

[4] = human, microsomes, 1 μM
protein kinase C = details: cited from earlier work
[5] = in vivo; cited from earlier work

| Compound | effect on ultrasonic appetitive vocalizations (50-kHz calls) [1] | half-life (t½) [2] | Mean brain ([3]; 0.25 hr) | Mean plasma ([3]; 0.25 hr) | Mean brain ([3]; 1 hr) | Mean plasma ([3]; 1 hr) | Mean brain ([3]; 4 hr) | Mean plasma ([3]; 4 hr) | increase of compound levels at 15 minutes by CYP3A4 inhibitor troleandomycin [4] | potency of protein kinase C inhibition, ruboxistaurin vs. N-desmethyl ruboxistaurin (protein kinase C) | elimination half-life [5] |
| --- | --- | --- | --- | --- | --- | --- | --- | --- | --- | --- | --- |
| (12E,32E,7S)-7-((methylamino)methyl)-22,25-dihydro-11H,21H,31H-6-oxa-1,3(3,1)-diindola-2(3,4)-pyrrolacyclononaphane-22,25-dione hydrochloride [N-desmethyl ruboxistaurin] | able to reduce ultrasonic appetitive vocalizations | 23.9 h | 21.0 ng/g | 73.3 ng/mL | 19.5 ng/g | 43.5 ng/mL | 13.3 ng/g | 11.8 ng/mL |  |  |  |
| CN(C)C[C@@H]1CCn2cc(c3ccccc32)C2=C(C(=O)NC2=O)c2cn(c3ccccc23)CCO1 [Ruboxistaurin] |  | 5.25 h |  |  |  |  |  |  | 23 fold | equipotent |  |
| [Li] [lithium] |  |  |  |  |  |  |  |  |  |  | about 18 hours |
